Three compounds from publication PMC6628648, “Enabling microbial syringol conversion through structure-guided protein engineering” (Proceedings of the National Academy of Sciences of the …, 2019) can be followed below.

In test [1] the target is T1, GcoA-F169A (Amycolatopsis sp., UniProt P0DPQ7, F169A). In words: Discontinuous HPLC specific activity (aromatic substrate disappearance). Conditions: 300 μM substrate, 300 μM NADH, 0.2 μM F169A/GcoB. In kind it is biochemical, Amycolatopsis sp. ATCC 39116. Also noted: GST (N, cleaved yes); made in house; host or cells: E. coli Rosetta 2 (DE3). As for the experimental part:
HPLC was used to verify the O-demethylated product of GcoA-F169A GcoA/GcoB with guaiacol, syringol, or 3MC. In addition, discontinuous HPLC was used to determine the specific activity of aromatic product disappearance. Details are provided in SI Appendix. […]
(§1) vi = Vmax[S]/(KM + [S]) (4)
(§2) Determination of substrate dissociation constants (KD) with F169A. 0-60 µM of guaiacol, syringol, or 3MC in 0.5 or 1 µM aliquots, were titrated into a cuvette containing 3 µM F169A GcoA in 25 mM HEPES, 50 mM NaCl, pH 7.5. The spectrum after each substrate addition was recorded, beginning with no substrate bound. The solution reached equilibrium before the next addition. A difference spectrum was made to illustrate the shift from a low-spin aquo-heme complex to the high-spin substrate-bound complex (spectral […]
(§3) shift from 417 nm to 388 nm). […] The absorbance […]
(§4) at 388 nm (Abs388-417 nm) was plotted as a function of [substrate], yielding a quadratic curve that was fit to equation (5) to determine […]
Formaldehyde determination. A colorimetric assay using tryptophan can be used to quantify the amount of formaldehyde produced in F169 GcoA/B reactions with guaiacol, syringol, or 3MC. […] 200 μM NADH was added and the background rate recorded. 100 (guaiacol, syringol, or 3MC) or 200 (syringol) μM of substrate was then added and the reaction monitored until there was no more change, due to either substrate, NADH or O2 depletion, whichever occurred first. […] After cooling, the absorbance was read at 575 nm and the [formaldehyde] calculated by using ε575 nm = 4.2 mM-1 cm-1, obtained with formaldehyde as a standard (1). […]
HPLC for product identification and specific activity measurement. […] Integrated intensities vs [standards] were plotted and the resulting standard curves used to quantify the reactants and products.
For specific activity determination, 300 μM guaiacol, syringol, or 3MC were added from 0.1 M DMSO stocks to air saturated buffer (25 mM HEPES, 50 mM NaCl, pH 7.5), with a final volume of 1 mL. The [analyte] was measured via the above HPLC method. […]

For the next test, the target named is T2, GcoA variant F169V (Amycolatopsis sp., UniProt P0DPQ7, F169V).
T2 construct: GST (N, cleaved yes); made in house; host or cells: E. coli Rosetta 2 (DE3)
In words: NADH consumption assay (specific activity) with GcoB. In kind it is biochemical, Amycolatopsis sp. ATCC 39116. Conditions: saturating (200 µM) substrate, pH 7.5, 25°C.

In a further test the target is T3, GcoA variant F169I (Amycolatopsis sp., UniProt P0DPQ7, F169I).
T3 construct: GST (N, cleaved yes); made in house; host or cells: E. coli Rosetta 2 (DE3)
The test is described as above. Conditions: saturating (200 µM) substrate, pH 7.5, 25°C. The format is biochemical, Amycolatopsis sp. ATCC 39116.

Test [2] deals with T1, GcoA-F169A. In words: Substrate dissociation constant by ferric spin-state (UV/vis) titration. In kind it is binding, Amycolatopsis sp. ATCC 39116. Also noted: GST (N, cleaved yes); made in house; host or cells: E. coli Rosetta 2 (DE3). As for the experimental part: The equilibrium binding constant, KD, for GcoA-F169A and guaiacol, syringol, and 3MC was determined as described previously ([28]) and detailed in SI Appendix. […]
as §1, §2, §3, §4
Δ Absobs = Δ Absmax2Et(L0 + Et + KD − √(L0 + Et + Kd)2 − 4Et ∗ L0) (5)
Where L0, Et, KD, and ΔAbsmax are the ligand concentrations, total protein (subunit) concentration, the equilibrium dissociation constant, and the maximum Abs388-417 nm, respectively. Reported values are the average of 2 or more measurements.
Formaldehyde determination. A colorimetric assay using tryptophan can be used to quantify the amount of formaldehyde produced in F169 GcoA/B reactions with guaiacol, syringol, or 3MC. 0.2 µM each of F169 GcoA mutants and GcoB were dissolved in air-saturated buffer (25 mM HEPES, 50 mM NaCl) in a cuvette at pH 7.5, 25 °C. 100 µg/mL catalase was added to each reaction to capture any H2O2 formed during the uncoupled reaction. 200 μM NADH was added and the background rate recorded. 100 (guaiacol, syringol, or 3MC) or 200 (syringol) μM of substrate was then added and the reaction monitored until there was no more change, due to either substrate, NADH or O2 depletion, whichever occurred first. […] After cooling, the absorbance was read at 575 nm and the [formaldehyde] calculated by using ε575 nm = 4.2 mM-1 cm-1, obtained with formaldehyde as a standard (1). […]

Like-named read-outs stand apart in the source and are kept apart here.

T3 sequence (P0DPQ7 whole entry F169I): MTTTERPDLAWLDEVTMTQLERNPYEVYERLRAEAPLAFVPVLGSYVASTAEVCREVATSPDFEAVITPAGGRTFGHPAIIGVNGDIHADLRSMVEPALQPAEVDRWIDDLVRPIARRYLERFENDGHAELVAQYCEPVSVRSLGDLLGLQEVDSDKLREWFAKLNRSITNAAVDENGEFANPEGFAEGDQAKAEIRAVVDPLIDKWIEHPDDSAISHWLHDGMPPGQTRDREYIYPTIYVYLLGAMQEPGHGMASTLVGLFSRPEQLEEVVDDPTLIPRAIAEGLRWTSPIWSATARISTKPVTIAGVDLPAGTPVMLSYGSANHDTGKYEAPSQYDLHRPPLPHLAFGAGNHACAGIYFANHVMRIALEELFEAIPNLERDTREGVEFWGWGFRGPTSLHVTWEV
T2 sequence (P0DPQ7 whole entry F169V): as the sequence (P0DPQ7 whole entry F169I) above, with I169V counted along it
T1 sequence (P0DPQ7 whole entry F169A): as the sequence (P0DPQ7 whole entry F169I) above, with I169A counted along it

Consider `COc1cccc(O)c1O` [3MC, 3-methoxycatechol], for which the “aromatic substrate disappearance (specific activity)” value (from here on “aromatic substrate disappearance”) on GcoA-F169A [1] is 2.6 ± 0.3 μM s-1 μmol F169A-1. Further, the Specific activity came out at 5.7 ± 0.3 μmol sec-1 μmol-1 GcoA on GcoA variant F169V and 1.1 ± 0.7 μmol sec-1 μmol-1 GcoA on GcoA variant F169I. The same compound registered a Kd at GcoA-F169A [2] (GcoA-F169A, air-saturated 25 mM Hepes, 50 mM NaCl, pH 7.5, 25 °C, low-spin (417 nm) to high-spin (388 nm) change) of 9.5 ± 0.2 µM.
On to `COc1cccc(OC)c1O` [syringol, 2,6-dimethoxyphenol], for which the “aromatic substrate disappearance” value at GcoA-F169A [1] was 4.1 ± 0.3 μM s-1 μmol F169A-1. Moreover, the Specific activity at GcoA variant F169V worked out at 4.1 ± 0.8 μmol sec-1 μmol-1 GcoA; on GcoA variant F169I, 0.56 ± 0.2 μmol sec-1 μmol-1 GcoA. Further, on GcoA-F169A [2], the dissociation constant (Kd) worked out at 1.7 ± 0.07 µM.
Turning to `COc1ccccc1O` [guaiacol, 2-methoxyphenol], the “aromatic substrate disappearance” value at GcoA-F169A [1] is reported as 5.6 ± 0.3 μM s-1 μmol F169A-1. Also, the Specific activity on GcoA variant F169V was determined as 5.3 ± 0.2 μmol sec-1 μmol-1 GcoA; at GcoA variant F169I it was 1.4 ± 0.2 μmol sec-1 μmol-1 GcoA. The Kd at GcoA-F169A [2] worked out at 7.1 ± 0.1 µM.
